# Experiments:
# [1] = tested on: herpes zoster; experiment: Treatment of herpes zoster in patients, case report and general statement; assay type: in vivo; details: case 5, herpes zoster around right eye
# Description: The average total period of treatment with the present invention is from about 2-4 days for herpes simplex and from about 3-7 days for herpes zoster. After the acute stage, crusts of the lesion form and fall off gradually, and then a red spot or spots remain for some more days. […] […] For quicker relief, the patient preferred to take the formula of the present invention along with acyclovir.
# [2] = tested on: herpes simplex; experiment: Treatment and prevention of herpes simplex (lips, mouth) in patients, case reports and general statements; assay type: in vivo; details: large dosage (200-500 mg), applicant's experience
# Description: The treatment regimen of the present invention comprises: Initially, administering to the patient 2 capsules (or tablets, the same hereinafter) of said formula orally every 2-4 hours. The dosage may be higher in severe cases, and may be adjusted by the prescribing health care provider. When symptoms are alleviated (see description below), usually after 1-2 days, administer 1 capsule of said formula every 4 hours until symptoms disappear. The average total period of treatment with the present invention is from about 2-4 days for herpes simplex and from about 3-7 days for herpes zoster. After the acute stage, crusts of the lesion form and fall off gradually, and then a red spot or spots remain for some more days. The formula of the present invention can be used for therapeutic prevention of herpes simplex: Whenever the patient feels a stinging and burning sensation on the potential site, or feels roughness on the tip of the tongue, they can ingest 1-2 capsules of the formula, and repeat every 2-4 hours if necessary. […] After several such preventive measures, recurrence of herpes simplex will be less and less likely, or latent for a sustained period. […] Patient stated that they had had recurrent maceration in the angles of the mouth since childhood. […]
Structure (SMILES),pain relief before treatment with the formula [1],effect on the course of herpes simplex [2]
CC(C)Cc1ccc(C(C)C(=O)O)cc1 (stereo not drawn) [Ibuprofen],effective only for a short time,
Nc1nc2c(ncn2COCCO)c(=O)[nH]1 [acyclovir],got some relief,
O=C1O[C@H]([C@@H](O)CO)C(O)=C1O [vitamin C],,made herpes simplex worse

# Reference: patent US7862838B1, “Composition and regimen for the treatment of herpes simplex and herpes zoster primarily by eliminating their pathogenetic conditions and taking into account both pathogenesis and etiology” (priority 2009, dated 2011)
